Measured values: ChEMBL document CHEMBL5653615 (J Biol Chem, 2013)

Biological target: T1, Serine/threonine-protein kinase Nek11 (Homo sapiens) (UniProt Q8NG66)
T1 sequence (whole entry): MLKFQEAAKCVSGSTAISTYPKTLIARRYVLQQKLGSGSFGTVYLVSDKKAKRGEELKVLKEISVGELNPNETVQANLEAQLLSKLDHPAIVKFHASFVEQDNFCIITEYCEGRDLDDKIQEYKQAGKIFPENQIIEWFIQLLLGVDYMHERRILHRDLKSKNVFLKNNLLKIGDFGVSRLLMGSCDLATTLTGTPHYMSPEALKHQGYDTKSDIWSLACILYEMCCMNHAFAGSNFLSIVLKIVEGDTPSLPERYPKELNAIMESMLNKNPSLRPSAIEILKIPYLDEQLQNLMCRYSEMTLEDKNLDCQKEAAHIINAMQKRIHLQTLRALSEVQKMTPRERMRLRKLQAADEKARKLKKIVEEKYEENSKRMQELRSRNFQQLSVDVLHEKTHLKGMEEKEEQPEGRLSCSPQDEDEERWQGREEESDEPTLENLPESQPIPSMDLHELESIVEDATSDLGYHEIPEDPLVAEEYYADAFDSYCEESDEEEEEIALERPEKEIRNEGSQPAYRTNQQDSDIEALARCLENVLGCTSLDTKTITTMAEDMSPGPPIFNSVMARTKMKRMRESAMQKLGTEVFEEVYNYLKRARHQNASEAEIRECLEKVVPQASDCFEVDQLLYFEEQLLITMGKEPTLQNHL
Experiment: Inhibition of human NEK11 at 18.6 nM by HotSpot assay relative to control

inhibition: 10.2%
SMILES: C[C@]1(O)C[C@@H](c2nc(-c3ccc4ccc(-c5ccccc5)nc4c3)c3c(N)nccn32)C1
